Key:
HDF [1] = assay: cGMP assay (competitive immunoassay on cell lysates); format: cell-based; settings: Homo sapiens, 1 µM LY, 100 µM SNP for 2 hours, read-out: inhibition of the SNP-induced synthesis of cGMP
Protocol: Cells of early and late passages were seeded in equal numbers in 6-well plates. 24 hours later SNP (Sigma) was dissolved in complete medium and added to cells to a final concentration of 100 µM. Control cells received the same volume of drug-free medium. After 2 hours of incubation, medium was removed and cells were lysed by addition of 400 µl 0.1 M HCl per well for 10 minutes. cGMP concentration in lysates was determined using a specific competitive immunoassay according to the manufacturer's instructions (Sigma). A plate reader (LAMBDA E, MWG-Biotech) was used to detect the signal at 405 nm. Experiments were performed in triplicates with all samples measured twice.

HDF [2] = assay: proliferation assay (cell counting); format: cell-based
Protocol: (§1) Cells were seeded in equal numbers in 6-well plates the day before addition of LY in order to ensure uniform cell layers at the start of the experiments. Cells were treated in triplicates with daily exchange of medium containing drug or drug-free vehicle. For each time point cells were trypsinized and cell proliferation was assessed using a Z1 Counter (Coulter).

HDF [3] = assay: SA-β-gal staining and morphology; format: cell-based, human; settings: early passage HDF treated with LY
Protocol: Cells were fixed by incubation in 0.5 % glutaraldehyde in PBS for 5 minutes at room temperature and stained for SA-ß-galactosidase at pH 6.0 as described by Dimri et al., 1995.
(§2) For phase contrast and β-gal staining an Axiovert 25 microscope (Zeiss) equipped with a HyperHAD CCD camera (Sony) and ImageBase software (Kappa) was used. In vivo expression of histone-H2B-eGFP was documented with a Photometrics CooISNAP-HQ CCD camera (Roper Scientific) on an inverted Axiovert 200M microscope (Zeiss) using the Metamorph software (Universal Imaging).

HDF [4] = assay: FACS analysis of cell cycle after release from confluence; format: cell-based, human; settings: HDF synchronized by confluence, released by trypsinization; 1 µM LY, 24 and 36 hours
Protocol: (§3) Cell samples (both adherent and floating cells) were harvested by trypsinization, washed once with PBS and fixed in 70 % ethanol for > 2 hours on ice, washed once with PBS and incubated for 30 minutes at room temperature in staining solution containing 50 µg/ml of propidium iodide, 0.2 mg/ml of RNase A and 0.1 % (v/v) Triton X-100 in PBS. Quantification of apoptotic cells was performed using the Annexin V-FITC apoptosis detection kit (Becton Dickinson). Samples were analyzed with a FACScan unit (Becton Dickinson). 1×10^4 cells were analyzed for each assay. Quantitation was performed using single histogram statistics.

HDF [5] = assay: detection of DNA-synthesis (BrdU incorporation); format: cell-based, human; settings: 1 µM LY; synchronized HDF; 10 µM BrdU for 6 hours
Protocol: Cells were plated on cell locate glass grids (Eppendorf) and labeled for 6 hours using the 5'-bromo-2'-deoxy-uridine labelling and detection kit I (Roche Applied Sciences). After staining with a FITC-labeled anti-BrdU-antibody, positive cells were detected by fluorescence microscopy.

p53 protein in HDF = assay: Western blot analysis, p53; format: cell-based, human; settings: after treatment with LY
Protocol: (§4) Cells were lysed in a lysis buffer composed of 50 mM HEPES pH 7.5, 150 mM NaCl, 1 mM EGTA, 10 % glycerol, 1 % Triton X-100, 100 mM NaF, 10 mM Na4P2O7, 1 µM PMSF, and 1 µM Na3VO4. Protein concentration in whole lysates was determined using a Bradford assay (BioRad). 20 µg of lysates diluted with Laemmli-buffer were separated on 12 % SDS-polyacrylamide gels and transferred to Immobilon-P membranes (Millipore). For detection of pRb, separation was performed on a 7-12 % gradient gel. Antibodies against p53 (Pab 1801), p21 (c-19), p16 (c-20) and α-Tubulin (TU-02) were purchased from Santa Cruz Biotechnology. Anti-pRB antibodies (G3-245) were from BD PharMingen. Enhanced chemiluminescence generated by horse radish peroxidase-coupled secondary antibodies was detected with a CF440 imager (Kodak/Perkin Elmer).

p16INK4A in HDF = assay: Western blot analysis, p16; format: cell-based, human; settings: 48 hours of treatment with LY
Protocol: as §4

pRb in HDF = assay: Western blot analysis, pRb phosphorylation status; format: cell-based, human
Protocol: as §4

DLD1 = assay: proliferation assay (cell counting); format: cell-based, human; settings: after addition of LY
Protocol: as §1

HCT116 = assay: proliferation assay (cell counting); format: cell-based, human
Protocol: as §1

MCF7 = assay: proliferation assay (cell counting); format: cell-based, human; settings: after addition of LY
Protocol: as §1

[6] = system: p21-deficient HCT116 colorectal cancer cells; assay: proliferation assay (cell counting); format: cell-based, human
Protocol: as §1

[7] = system: p53-deficient HCT116 cells; assay: proliferation assay (cell counting); format: cell-based, human; settings: after LY addition
Protocol: as §1

[8] = system: p21 protein in HCT116 cells; assay: Western blot analysis, p21; format: cell-based, human
Protocol: as §4

[9] = system: p21 mRNA and protein of p53-/- HCT116; assay: Northern and Western blot analysis of p21; format: cell-based, human; settings: 1.5 µM LY
Protocol: (§5) RNA was isolated using the RNAgents kit (Promega). A Northern probe directed against the 3'-untranslated region of ELF1 α mRNA was generated by PCR using an EST as template and subsequent gel purification. The p21 probe corresponds to the open reading frame of p21. A probe corresponding to the 5'-region of sGC-β3 was amplified from HDF-cDNA and subcloned. Hybridizations were performed in QuickHyb, following the manufacturer's instructions (Stratagene).
as §4

[10] = system: p16INK4A-deficient mouse embryo fibroblasts (MEF); assay: proliferation (data not shown); format: cell-based; settings: LY
Protocol: as §1

[11] = system: NIH3T3-L1 cells expressing the K1-mutant; assay: proliferation assay (cell counting); format: cell-based, mouse; settings: 1.5 µM LY; most cells
Protocol: as §1

[12] = system: NIH3T3-L1 cells expressing wildtype SV40 large T antigen; assay: proliferation assay, morphology and annexin V staining; format: cell-based, mouse; settings: 1.5 µM LY
Protocol: as §3, §1

HeLa = assay: cell death / apoptosis (histone H2B-eGFP chromatin morphology, sub-G1 flow cytometry); format: cell-based, human
Protocol: as §3, §2

HEK293 = assay: cell death (data not shown); format: cell-based, human; settings: treatment with LY, no arrest
[13] = system: cdk-inhibitors p27 and p15; assay: induction of cdk-inhibitors (data not shown); format: cell-based; settings: LY-treatment
[14] = target: soluble guanylate cyclase; settings: competitive inhibitor of soluble guanylate cyclase; Fleisch et al., 1984; cited from earlier work
p21 mRNA in HDF = assay: Northern blot analysis of p21 mRNA; format: cell-based, human; settings: 0.2 µg/ml adriamycin
Protocol: as §5

O=C1C(Nc2ccccc2)=CC(=O)c2ncccc21 [LY, 6-Anilino-quinoline-5,8-quinone]
inhibition at 1 µM (HDF [1]): 60% | inhibition at 0.25 µM (HDF [2]; Homo sapiens, HDF, 72 h, read-out: reduction in proliferation): 50% | inhibition of proliferation (HDF [2]; early passage fibroblasts, 1 µM LY): completely inhibit proliferation | proliferation after extended treatment (HDF [2]; treatment for 8 days): stable inhibition of proliferation | toxicity after extended treatment (HDF [2]; treatment for 8 days): did not cause any obvious toxicity | reversibility of inhibition of proliferation (HDF [2]; treatment period of more than 2 days, 1 µM LY): irreversible | signs of senescence (morphology, SA-β-galactosidase) (HDF [3]): morphological changes characteristic of senescence and by SA-β-galactosidase staining at pH 6 | entry into S-phase (HDF [4]): almost completely blocked the entry into S-phase | DNA synthesis as determined by BrdU incorporation (HDF [5]): complete inhibition of DNA synthesis | level of p53 protein (p53 protein in HDF): did not increase | induction of p16INK4A (p16INK4A in HDF): not induced | ratio of phosphorylated to hypo-phosphorylated pRb (pRb in HDF; 6 hours after addition of LY): clearly shifted towards the hypo-phosphorylated form | pRb phosphorylation status (pRb in HDF; 19 hours after addition of LY): almost completely hypo-phosphorylated | cell proliferation (DLD1): complete cessation of cell proliferation | cell proliferation (HCT116; after addition of LY): complete cessation of cell proliferation | cell proliferation (HCT116; wild-type HCT116, after 5 days of LY treatment): complete cessation of proliferation | cell proliferation (MCF7): complete cessation of cell proliferation | cell-cycle inhibition ([6]; LY vs vehicle (DMSO)): resistant to cell-cycle inhibition | cell proliferation ([6]; after 5 days of LY treatment): regained exponential proliferation | cell proliferation [7]: complete block of proliferation | p21 protein ([8]; 1.5 µM LY): induction of p21 | levels of p21 mRNA and protein [9]: induced with kinetics similar to those observed in HDF | cell proliferation [10]: inhibited | cell proliferation [11]: inhibition of proliferation | cell fate [12]: underwent apoptosis | chromatin morphology (HeLa; HeLa expressing histone H2B-eGFP, 2 µM LY for 48 hours): chromatin condensation | cells with a sub-G1 DNA content (HeLa; HeLa treated for 60 hours with LY, flow-cytometry): substantial increase of cells with a sub-G1 DNA content | cell fate (HeLa; treatment with LY, no arrest, data not shown): underwent cell death | cell fate (HEK293): underwent cell death | induction of p27 and p15 [13]: did not lead to induction | IC50 [14]: 2000 nM

COc1cccc2c1C(=O)c1c(O)c3c(c(O)c1C2=O)C[C@@](O)(C(=O)CO)C[C@@H]3O[C@H]1C[C@H](N)[C@H](O)[C@H](C)O1 [adriamycin]
p21 mRNA (p21 mRNA in HDF): induction of p21 mRNA | p21 protein ([8]; wildtype HCT116 only, adriamycin at 0.2 µg/ml for 8 hours): induction of p21 protein
